Test results from US6596863B2, “Medical composition containing nitroetheneamine Derivative or salt there of as active constituent” (Ishihara Sangyo Kaisha, Ltd., priority 1998, dated 2003).
Like-named read-outs stand apart in the source and are kept apart here.

Columns and labels:
[1] = biological target: T1, human MMP-9 (gelatinase B) (Homo sapiens, UniProt P14780); experiment: Inhibition activity against human MMP-9 (gelatinase B), fluorescent peptide substrate; type: biochemical
T1 construct: endogenous in cells; host or cells: HT1080 human fibrosarcoma cells (ATCC CCL-121), PMA-stimulated; enzyme purified from the culture supernatant
T1 sequence (P14780 107-707 limits assumed): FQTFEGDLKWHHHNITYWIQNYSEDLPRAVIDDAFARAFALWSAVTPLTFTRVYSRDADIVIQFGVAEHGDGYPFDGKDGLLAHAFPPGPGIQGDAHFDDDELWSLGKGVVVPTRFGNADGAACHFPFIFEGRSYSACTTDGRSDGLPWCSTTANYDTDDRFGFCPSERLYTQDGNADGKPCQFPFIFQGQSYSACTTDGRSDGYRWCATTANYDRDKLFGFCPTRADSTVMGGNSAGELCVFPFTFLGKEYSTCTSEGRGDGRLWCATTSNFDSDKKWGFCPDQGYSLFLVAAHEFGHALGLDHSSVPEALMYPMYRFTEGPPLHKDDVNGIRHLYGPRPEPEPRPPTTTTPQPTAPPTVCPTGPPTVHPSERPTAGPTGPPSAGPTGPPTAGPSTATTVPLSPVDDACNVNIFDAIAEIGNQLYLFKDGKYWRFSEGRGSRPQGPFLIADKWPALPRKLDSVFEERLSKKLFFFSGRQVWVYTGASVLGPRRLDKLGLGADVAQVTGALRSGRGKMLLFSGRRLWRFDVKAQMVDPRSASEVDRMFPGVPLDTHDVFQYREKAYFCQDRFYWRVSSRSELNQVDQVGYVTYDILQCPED
Protocol: Human MMP-9 (gelatinase B) was purified by the following method from a culture supernatant of HT1080 cells (human fibrosarcoma).
2.5×10^6 HT1080 cells (ATCC CCL-121, purchased from Dainippon Seiyaku) were inoculated to a tissue culture dish (Code No. 3020-100, manufactured by Iwaki Glass Co., Ltd.) having a diameter of 10 cm and containing 10 ml of Dulbecco's Modified Eagle Medium (DME, No. D-5648, manufactured by Sigma Co.) containing 10% fetal bovine serum (FBS: REHATUIN™, Code No. 1020-90, manufactured by Intergen Co.) and cultured for 72 hours at 37° C. in an atmosphere comprising 5% of CO2 and 95% of air (Carbon Dioxide Incubator LNA-122D Model, manufactured by Tabai Co.). Then, the medium was changed to 10 ml of a DME culture medium containing no FBS, and phorbol 12-myristate 13-acetate (PMA, code No. 163-114851, manufactured by Wako Pure Chemical Industries, Ltd.) was added so that the final concentration became 10 ng/ml. Under the same conditions, the culturing was carried out for further 20 hours, whereupon the culture supernatant was collected and subjected to cool centrifugation at 4° C. for 5 minutes (cool centrifugal separator, manufactured by Hitachi) to remove cell fragments.
The pH of a conditioned medium (50 ml) containing MMP-9, thus prepared, was adjusted to 8.0 with 0.2N NaOH. […] Namely, the above-mentioned conditioned medium was passed through DEAE-Sephacel (manufactured by Pharmacia, gel volume: about 35 ml) preliminarily equilibrated with 50 mM Tris-HCl, pH 8.0 (A buffer), and a non-adsorption fraction was collected. Then, it was added to Dye Matrix Gel Green A (manufactured by Amicon Co., gel volume: about 6 ml) preliminarily equilibrated with 50 mM Tris-HCl, pH 7.5/10 MM CaCl2/0.05% Brij 35/0.02% NaN3 (B buffer) and thoroughly washed with the same buffer, whereupon the adsorbed enzyme was eluted with a 1M NaCl-containing B buffer. About 7.5 ml of the eluted fraction was diluted twice with the B buffer and added to Gelatin-Sepharose 4B (manufactured by Pharmacia, gel volume: about 6 ml) preliminarily equilibrated with a 0.5 M NaCl-containing B buffer. It was thoroughly washed with a 0.5M NaCl-containing B buffer, and eluted with the B buffer containing 10% of dimethylsulfoxide (DMSO) and 0.5 M of NaCl. 5.5 ml of the eluted fraction was dialyzed against a 0.1 M NaCl-containing B buffer to obtain 5.2 ml of a purified enzyme solution. The purified MMP-9 standard product was confirmed to have a single band of 92 kDa by a protein staining by SDS electrophoresis, and further, it was confirmed to have an adequate gelatin decomposing activity by gelatinzymography (carried out in accordance with a method by Howard E. W. et al; Journal Biological Chemistry, Vol. 266, 13064-13069, 1991) and to have an adequate substrate decomposing activity by the after-mentioned measurement employing a fluorescent peptide substrate specific to MMP.
The inhibition activity against human MMP-9 was measured by the following method in accordance with the method by C. G. Knight et al (FEBS Letters, Vol, 296, 263-266, 1992) employing a fluorescent peptide substrate (7-methoxycoumarin-4-yl)Acetyl-Pro-Leu-Gly-Leu-(3-[2,4-dinitrophenyl]—Ala—Arg-NH2, Code 3163-VC, manufactured by Peptide Institute, Inc.
Further, as the case requires, commercially available human MMP-9 purified enzyme (No. YU-18003, manufactured by Kabushiki Kaisha Yagai Chuo Kenkyusho; used in a final concentration of from 0.0125 to 0.025 unit/ml, No. CC079, manufactured by Chemicon International, Inc.; used in a final concentration of 0.2 μg/ml) was used for the tests. […]

[2] = compounds of the formula (I), 1st measurement, read-out: MMP-9 inhibition activities IC50, 1st
[3] = compounds of the formula (I), average of 1st and 2nd (or single measurement), read-out: MMP-9 inhibition activities IC50, Average
[4] = compounds of the formula (I), 2nd measurement, read-out: MMP-9 inhibition activities IC50, 2nd

| SMILES | IC50 [1, 2] | IC50 [1, 3] | melting point | IC50 [1, 4] | IC50 ([1]; intermediates, compounds of the formula (IV), 1st measurement, read-out: MMP-9 inhibition activities IC50, 1st) | IC50 ([1]; intermediates, compounds of the formula (IV), 2nd measurement, read-out: MMP-9 inhibition activities IC50, 2nd) | IC50 ([1]; intermediates, compounds of the formula (IV), average of 1st and 2nd (or single measurement), read-out: MMP-9 inhibition activities IC50, Average) |
| --- | --- | --- | --- | --- | --- | --- | --- |
| CNC(=C[N+](=O)[O-])NNc1cc(OC)nc(OC)n1 [compound 101] | 37.8 µM | 28.2 µM | 160 to 162 °C (dec.) | 18.5 µM |  |  |  |
| CNC(=C[N+](=O)[O-])NN=C(C)c1cccnc1 [compound 34] | 30.2 µM | 28.6 µM | 181 °C (dec.) | 26.9 µM |  |  |  |
| CSC(=C[N+](=O)[O-])Nc1c(C)nn(C)c1C [Intermediate 54] |  |  | 184 to 188 °C |  | 38.7 µM | 33.9 µM | 36.3 µM |
| NNC(=C[N+](=O)[O-])NC1CC1 [compound 90] | 18.7 µM | 28 µM | 145 °C (dec.) | 37.4 µM |  |  |  |
| CNC(=C[N+](=O)[O-])NN(C)c1ccc(C(F)(F)F)cn1 [compound 36] | 19.7 µM | 22 µM | 153 to 154 °C | 24.3 µM |  |  |  |
| CNC(=C[N+](=O)[O-])NNc1ccccc1Cl [compound 8] | 36.7 µM | 33.4 µM | 178 °C (dec.) | 30.1 µM |  |  |  |
| CNC(=C[N+](=O)[O-])NNc1ncc(C(F)(F)F)cc1Cl [compound 21] | 11.7 µM | 14.9 µM | 168 °C (dec.) | 18.1 µM |  |  |  |
| NNC(=C[N+](=O)[O-])NN1CCOCC1 [compound 67] | 56.9 µM | 50 µM | 187 °C (dec.) | 43.1 µM |  |  |  |
| COc1ccccc1NC(=C[N+](=O)[O-])NN [compound 57] | 38.7 µM | 36.6 µM | 135.5 to 136 °C | 35.1 µM |  |  |  |
| CCNC(=C[N+](=O)[O-])NNc1cc(C(F)(F)F)cc(Cl)n1 [compound 102] | 18.2 µM | 16.1 µM | 206 °C (dec.) | 14 µM |  |  |  |

The next lines start with the values.

| IC50 [1, 2] | IC50 [1, 3] | melting point | IC50 [1, 4] | IC50 ([1]; intermediates, compounds of the formula (IV), 1st measurement, read-out: MMP-9 inhibition activities IC50, 1st) | IC50 ([1]; intermediates, compounds of the formula (IV), 2nd measurement, read-out: MMP-9 inhibition activities IC50, 2nd) | IC50 ([1]; intermediates, compounds of the formula (IV), average of 1st and 2nd (or single measurement), read-out: MMP-9 inhibition activities IC50, Average) | SMILES |
| --- | --- | --- | --- | --- | --- | --- | --- |
| 3.2 µM | 3.2 µM | 30 to 33 °C |  |  |  |  | CC(=C(NNc1cc(C(F)(F)F)cc(Cl)n1)NS(C)(=O)=O)[N+](=O)[O-] [compound 165] |
| 31.8 µM | 29.2 µM | 162 to 165 °C | 26.5 µM |  |  |  | COc1ccc(NC(=C[N+](=O)[O-])NN)cn1 [compound 115] |
| 38.2 µM | 34.6 µM | 193 to 197 °C (dec.) | 30.9 µM |  |  |  | NNC(=C[N+](=O)[O-])NC1Cc2ccccc2C1 [compound 112] |
| 21.1 µM | 19.3 µM | 202 to 203 °C (dec.) | 17.5 µM |  |  |  | CNC(=C[N+](=O)[O-])NNc1nc(OC)nc(OC)n1 [compound 104] |
| 32.3 µM | 33.7 µM | 169 °C (dec.) | 35.1 µM |  |  |  | CNC(=C[N+](=O)[O-])NNc1cc(C(F)(F)F)cc(OCCCc2ccccn2)n1 [compound 118] |
| 35.2 µM | 32.3 µM | 177 to 180 °C (dec.) | 29.3 µM |  |  |  | NNC(=C[N+](=O)[O-])Nc1ccc2c(c1)OCO2 [compound 110] |
| 6 µM | 6 µM | 114 to 119 °C (dec.) |  |  |  |  | CCS(=O)(=O)NC(=C[N+](=O)[O-])NNc1cc(C(F)(F)F)cc(Cl)n1 [compound 161] |
| 5.7 µM | 6 µM | 150 to 151 °C | 6.2 µM |  |  |  | O=[N+]([O-])C=C(NCCCCO)NNc1cc(C(F)(F)F)cc(Cl)n1 [compound 199] |
| 4.8 µM | 9.9 µM | 180 °C (dec.) | 14.9 µM |  |  |  | CNC(=C[N+](=O)[O-])NN=CC=Cc1ccccc1 [compound 144] |
| 8.3 µM | 8.3 µM | 171 °C (dec.) |  |  |  |  | CNC(=C[N+](=O)[O-])NN=Cc1ncc(C(F)(F)F)cc1Cl [compound 179] |
| 30 µM | 34.7 µM | 93.5 to 98.5 °C | 39.3 µM |  |  |  | CCNC(=C[N+](=O)[O-])NN [compound 117] |
